Test results published in article PMC8847198, “The Influence of AA29504 on GABAA Receptor Ligand Binding Properties and Its Implications on Subtype Selectivity” (Neurochemical Research, 2021).
Read-outs that look alike come from different tables or passages of the source.

Tests used:
[1] = target: T1, recombinant α6β3 GABAARs expressed in HEK293 cells (Rattus norvegicus, UniProt P30191+P63079); assay: GABA-independent displacement of [^3H]EBOB binding, recombinant α6β3
T1 construct: expressed in transfected cells; host or cells: HEK293, transient calcium phosphate transfection, pRK5 plasmids
T1 sequence (P30191 20-453): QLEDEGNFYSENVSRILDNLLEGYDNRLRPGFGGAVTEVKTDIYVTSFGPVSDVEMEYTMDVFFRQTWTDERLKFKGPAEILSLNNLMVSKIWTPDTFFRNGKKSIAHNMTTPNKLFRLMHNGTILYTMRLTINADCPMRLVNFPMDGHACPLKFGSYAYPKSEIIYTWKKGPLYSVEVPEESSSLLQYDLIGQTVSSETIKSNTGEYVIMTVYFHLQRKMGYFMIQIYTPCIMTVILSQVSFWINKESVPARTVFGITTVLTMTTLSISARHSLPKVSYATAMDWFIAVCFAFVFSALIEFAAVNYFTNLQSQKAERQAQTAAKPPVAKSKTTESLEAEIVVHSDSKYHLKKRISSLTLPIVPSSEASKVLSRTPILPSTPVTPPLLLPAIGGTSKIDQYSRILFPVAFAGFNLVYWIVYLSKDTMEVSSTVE
T1 sequence (P63079 26-473): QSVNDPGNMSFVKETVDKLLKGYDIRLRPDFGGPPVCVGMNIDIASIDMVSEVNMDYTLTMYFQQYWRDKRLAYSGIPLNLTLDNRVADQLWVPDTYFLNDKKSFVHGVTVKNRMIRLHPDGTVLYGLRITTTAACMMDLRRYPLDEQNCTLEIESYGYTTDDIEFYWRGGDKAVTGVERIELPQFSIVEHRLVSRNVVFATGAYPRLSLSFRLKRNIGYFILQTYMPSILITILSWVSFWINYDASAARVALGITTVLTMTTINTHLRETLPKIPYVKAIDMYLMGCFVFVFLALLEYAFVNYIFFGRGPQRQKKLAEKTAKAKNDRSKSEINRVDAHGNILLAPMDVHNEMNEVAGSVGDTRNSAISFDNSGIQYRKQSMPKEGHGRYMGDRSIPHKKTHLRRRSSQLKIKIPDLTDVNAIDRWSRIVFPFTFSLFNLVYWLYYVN
Method: (§1) Triplicate samples were incubated with shaking for 2 h. […] The incubations were terminated as described above for [^3H]muscimol binding.
(§2) GraphPad Prism software (GraphPad, San Diego, CA, USA) was used for nonlinear least squares curve-fitting and statistical testing of association, dissociation, saturation binding and radioligand displacement data. The association and dissociation curves were used for the estimation of association (Kon) and dissociation (Koff) rate constants. Saturation binding curves were used for the estimation of total number of high-affinity binding sites (Bmax), and equilibrium dissociation constants (KD). […] Statistical comparisons were made with One-way ANOVA, Two-way ANOVA or Brown-Forsythe and Welch ANOVA followed by the relevant (Tukey’s or Dunnett’s) post hoc tests for multiple comparisons. […] The study samples were not randomized and analysis was performed in a parallel unblinded mode.

[2] = target: T2, recombinant α6β3δ GABAARs expressed in HEK293 cells (Rattus norvegicus, UniProt P18506+P30191+P63079); assay: GABA-independent displacement of [^3H]EBOB binding, recombinant α6β3δ
T2 construct: expressed in transfected cells; host or cells: HEK293, transient calcium phosphate transfection, pRK5 plasmids, 1:1:1
T2 sequence (P30191 20-453): as the sequence (P30191 20-453) above
T2 sequence (P63079 26-473): as the sequence (P63079 26-473) above
T2 sequence (P18506 17-449 limits assumed): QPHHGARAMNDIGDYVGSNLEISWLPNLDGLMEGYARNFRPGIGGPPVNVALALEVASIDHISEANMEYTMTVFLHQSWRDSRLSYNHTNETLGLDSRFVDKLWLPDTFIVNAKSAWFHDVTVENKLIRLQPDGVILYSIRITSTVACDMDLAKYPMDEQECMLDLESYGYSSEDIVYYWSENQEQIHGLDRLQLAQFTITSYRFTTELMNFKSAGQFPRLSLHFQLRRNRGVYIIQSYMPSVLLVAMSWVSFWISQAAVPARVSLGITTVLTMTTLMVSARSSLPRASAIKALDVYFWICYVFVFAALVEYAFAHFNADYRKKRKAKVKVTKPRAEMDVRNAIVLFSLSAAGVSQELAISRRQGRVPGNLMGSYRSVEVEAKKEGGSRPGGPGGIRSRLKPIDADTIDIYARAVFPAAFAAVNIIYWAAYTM
Method: as §1, §2

[3] = target: T3, recombinant α6β3γ2 GABAARs expressed in HEK293 cells (Rattus norvegicus, UniProt P18508+P30191+P63079); assay: GABA-independent displacement of [^3H]EBOB binding, recombinant α6β3γ2
T3 construct: expressed in transfected cells; host or cells: HEK293, transient calcium phosphate transfection, pRK5 plasmids, 1:1:1
T3 sequence (P30191 20-453): as the sequence (P30191 20-453) above
T3 sequence (P63079 26-473): as the sequence (P63079 26-473) above
T3 sequence (P18508 39-466): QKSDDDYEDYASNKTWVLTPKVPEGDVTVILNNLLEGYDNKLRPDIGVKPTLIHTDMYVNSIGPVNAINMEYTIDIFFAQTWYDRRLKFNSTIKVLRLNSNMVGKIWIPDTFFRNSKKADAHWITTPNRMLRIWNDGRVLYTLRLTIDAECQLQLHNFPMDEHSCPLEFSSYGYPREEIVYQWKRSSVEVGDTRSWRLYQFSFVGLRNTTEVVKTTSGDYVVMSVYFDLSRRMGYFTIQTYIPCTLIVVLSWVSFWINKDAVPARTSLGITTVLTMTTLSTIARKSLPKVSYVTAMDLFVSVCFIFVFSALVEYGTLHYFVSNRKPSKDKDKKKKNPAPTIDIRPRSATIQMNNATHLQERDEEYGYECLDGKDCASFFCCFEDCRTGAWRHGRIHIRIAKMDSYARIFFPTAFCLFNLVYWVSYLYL
Method: as §1, §2

[4] = system: native GABAARs expressed in WT mice forebrain membranes; assay: AA29504 effect on [^3H]muscimol binding, WT forebrain membranes; set-up: species or system mouse; settings: increasing concentrations of AA29504, 15 min, 22 °C
Method: (§3) WT and δKO forebrain membranes were prepared using the method of Squires and Saederup as modified by Uusi-Oukari et al.. Homogenized and washed membranes were suspended in 10 mM Tris–HCl, pH 7.4 and stored at -70 °C.

[5] = system: native GABAARs expressed in δKO mice forebrain membranes; assay: AA29504 effect on [^3H]muscimol binding, δKO forebrain membranes; set-up: species or system mouse; settings: increasing concentrations of AA29504, 15 min, 22 °C
Method: as §3

[6] = system: native GABAARs expressed in WT mice forebrain membranes; assay: AA29504 effect on [^3H]GABA binding, WT forebrain membranes; set-up: species or system mouse; settings: increasing concentrations of AA29504, 15 min, 22 °C
Method: as §3

[7] = system: native GABAARs expressed in δKO mice forebrain membranes; assay: AA29504 effect on [^3H]GABA binding, δKO forebrain membranes; set-up: species or system mouse; settings: increasing concentrations of AA29504, 15 min, 22 °C
Method: as §3

[8] = system: GABAARs in WT forebrain membranes; assay: [^3H]muscimol association and dissociation, WT forebrain membranes; type: binding, mouse
Method: as §3
(§4) The effect of AA29504 on the association and dissociation of [^3H]muscimol binding was measured essentially as described by Benkherouf et al.. Saturation analysis of [^3H]muscimol was performed essentially as described by Uusi-Oukari and Korpi. Triplicate samples of the membranes were incubated in assay buffer with a concentration series of [^3H]muscimol (1–50 nM) at room temperature (22 °C) for 60 min in the absence and presence of 10 µM AA29504. […] .
(§5) GraphPad Prism software (GraphPad, San Diego, CA, USA) was used for nonlinear least squares curve-fitting and statistical testing of association, dissociation, saturation binding and radioligand displacement data. The association and dissociation curves were used for the estimation of association (Kon) and dissociation (Koff) rate constants. Saturation binding curves were used for the estimation of total number of high-affinity binding sites (Bmax), and equilibrium dissociation constants (KD). […] . Statistical comparisons were made with One-way ANOVA, Two-way ANOVA or Brown-Forsythe and Welch ANOVA followed by the relevant (Tukey’s or Dunnett’s) post hoc tests for multiple comparisons. […] . The study samples were not randomized and analysis was performed in a parallel unblinded mode.

[9] = system: GABAARs in δKO forebrain membranes; assay: [^3H]muscimol association and dissociation, δKO forebrain membranes; type: binding, mouse
Method: as §3, §4, §5

[10] = set-up: method as in PMID 20060846, PMID 22579928, PMID 20957350; settings: 60 min post 2 mg/kg, s.c. in mice; cited from earlier work
[11] = target: recombinant α6β2δ GABAARs expressed in HEK293 cells (Rattus norvegicus, UniProt P18506+P30191+P63138); assay: AA29504 effect on [^3H]muscimol binding, recombinant α6β2δ; settings: HEK293, 4 concentrations of AA29504
recombinant α6β2δ GABAARs expressed in HEK293 cells, sequence (P30191 20-453): as the sequence (P30191 20-453) above
recombinant α6β2δ GABAARs expressed in HEK293 cells, sequence (P63138 25-474 limits assumed): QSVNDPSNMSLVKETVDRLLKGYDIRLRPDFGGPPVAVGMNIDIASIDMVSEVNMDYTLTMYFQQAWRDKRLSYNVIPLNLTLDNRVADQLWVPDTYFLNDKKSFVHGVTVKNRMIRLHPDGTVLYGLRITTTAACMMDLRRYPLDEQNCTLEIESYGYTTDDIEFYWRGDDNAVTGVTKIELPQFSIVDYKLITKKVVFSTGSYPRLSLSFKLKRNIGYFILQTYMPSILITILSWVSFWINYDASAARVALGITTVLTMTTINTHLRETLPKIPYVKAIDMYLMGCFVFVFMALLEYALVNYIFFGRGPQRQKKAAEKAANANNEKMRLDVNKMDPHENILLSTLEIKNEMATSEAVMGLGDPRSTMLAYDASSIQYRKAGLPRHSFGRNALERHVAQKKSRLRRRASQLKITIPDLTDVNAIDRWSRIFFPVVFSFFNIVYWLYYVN
recombinant α6β2δ GABAARs expressed in HEK293 cells, sequence (P18506 17-449 limits assumed): as the sequence (P18506 17-449 limits assumed) above
Method: (§6) Human embryonic kidney (HEK) 293 cells were maintained at + 37 °C/10% CO2 in Dulbecco’s Modified Eagle’s Medium (DMEM) (Gibco, Gaithersburg, MD, USA), supplemented with 3.7 g/L NaHCO3, 10% Fetal Bovine Serum (FBS) (Gibco, Gaithersburg, MD, USA), 50,000 U/L penicillin and 50 mg/L streptomycin (Sigma-Aldrich, St Louis, MO, USA). The cells were divided and plated on 10 cm culture dishes for binding assays 24 h before transfection. HEK293 cells were transfected with rat cDNAs (α1, α6, β2, β3, γ2S, δ) in pRK5 plasmids [39] under the control of cytomegalovirus (CMV) promoter using calcium phosphate transfection method essentially as described by Lüddens and Korpi [40]. The plasmids were used in 1:1 and 1:1:1 ratios for transfections containing 2 [(α6) + (β3)] or 3 [(α1 or α6) + (β2 or β3) + (γ2S or δ)] different subunits, respectively (5 μg of each plasmid DNA for a 10 cm plate). The cells were incubated at 37 °C/10% CO2 for 24 h post-transfection. Old culture medium was replaced with fresh medium and the incubation resumed for another 24 h. The cells were harvested 48 h post-transfection. […]
(§7) Individually pooled triplicate membrane samples (3 total binding and 3 non‐specific binding) were incubated with shaking for 15 min. The effect of AA29504 on binding was determined in the presence of various concentrations of AA29504. […]

[12] = target: recombinant α1β2γ2 GABAARs expressed in HEK293 cells (Rattus norvegicus, UniProt P18508+P62813+P63138); assay: AA29504 effect on [^3H]muscimol binding, recombinant α1β2γ2; settings: α1β2γ2, HEK293, 4 concentrations of AA29504
recombinant α1β2γ2 GABAARs expressed in HEK293 cells, sequence (P62813 28-455): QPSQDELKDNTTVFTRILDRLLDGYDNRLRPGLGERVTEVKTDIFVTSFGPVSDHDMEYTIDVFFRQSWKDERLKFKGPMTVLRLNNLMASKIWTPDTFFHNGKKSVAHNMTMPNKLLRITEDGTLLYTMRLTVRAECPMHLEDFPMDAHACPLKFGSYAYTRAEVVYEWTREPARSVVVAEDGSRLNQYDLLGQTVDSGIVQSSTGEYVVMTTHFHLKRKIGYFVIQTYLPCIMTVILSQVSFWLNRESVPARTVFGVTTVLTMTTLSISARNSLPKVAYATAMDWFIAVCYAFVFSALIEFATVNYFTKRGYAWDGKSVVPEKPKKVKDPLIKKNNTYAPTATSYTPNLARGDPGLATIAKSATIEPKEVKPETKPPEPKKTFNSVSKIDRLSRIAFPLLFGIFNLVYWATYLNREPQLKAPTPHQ
recombinant α1β2γ2 GABAARs expressed in HEK293 cells, sequence (P63138 25-474): as the sequence (P63138 25-474 limits assumed) above
recombinant α1β2γ2 GABAARs expressed in HEK293 cells, sequence (P18508 39-466): as the sequence (P18508 39-466) above
Method: as §6, §7

[13] = target: recombinant α6β2γ2 GABAARs expressed in HEK293 cells (Rattus norvegicus, UniProt P18508+P30191+P63138); assay: AA29504 effect on [^3H]muscimol binding, recombinant α6β2γ2; settings: α6β2γ2, HEK293, 4 concentrations of AA29504
recombinant α6β2γ2 GABAARs expressed in HEK293 cells, sequence (P30191 20-453): as the sequence (P30191 20-453) above
recombinant α6β2γ2 GABAARs expressed in HEK293 cells, sequence (P63138 25-474 limits assumed): as the sequence (P63138 25-474 limits assumed) above
recombinant α6β2γ2 GABAARs expressed in HEK293 cells, sequence (P18508 39-466): as the sequence (P18508 39-466) above
Method: as §6, §7

[14] = set-up: method as in PMID 31736685; settings: in vivo; cited from earlier work
[15] = system: native GABAARs expressed in WT forebrain membranes; type: binding, mouse; settings: read-out: IC50 of agonist-induced [^3H]EBOB displacement
Method: as §3, §1, §2

[16] = system: native GABAARs expressed in δKO forebrain membranes; type: binding, mouse; settings: read-out: IC50 of agonist-induced [^3H]EBOB displacement
Method: as §3, §1, §2

[17] = target: GABAARs in WT mouse forebrain membranes; assay: Saturation analysis of [^3H]muscimol binding, WT forebrain membranes
Method: as §3, §4, §5

[18] = target: GABAARs in δKO mouse forebrain membranes; assay: Saturation analysis of [^3H]muscimol binding, δKO forebrain membranes; settings: one-site model
Method: as §3, §4
as §5, with “The study samples were not randomized and analysis was performed in a parallel unblinded mode.” left out

[19] = 10 µM AA29504, 2 nM [^3H]muscimol, control binding without AA29504
[20] = 2 nM [^3H]muscimol, 22 °C, absence of AA29504

CCOC(=O)Nc1ccc(NCc2c(C)cc(C)cc2C)cc1N [AA29504, [2-amino-4-(2,4,6-trimethylbenzylamino)-phenyl]-carbamic acid ethyl ester]
concentration at which GABA-independent radioligand displacement was evident ([1]; α6β3, 1 nM [^3H]EBOB): ≥ 100 nM
IC50 ([1]; α6β3, HEK293, 1 nM [^3H]EBOB, no GABA): 400 ± 20 nM
concentration at which GABA-independent radioligand displacement was evident ([2]; 1 nM [^3H]EBOB): ≥ 100 nM
IC50 ([2]; HEK293, 1 nM [^3H]EBOB, no GABA): 1100 ± 200 nM
concentration at which GABA-independent radioligand displacement was evident ([3]; α6β3γ2, 1 nM [^3H]EBOB): ≥ 300 nM
IC50 ([3]; α6β3γ2, HEK293, 1 nM [^3H]EBOB, no GABA): 11100 ± 1400 nM
effect on 2 nM [^3H]muscimol binding [4]: concentration-dependent stimulation
effect on 2 nM [^3H]muscimol binding [5]: concentration-dependent stimulation
effect on 5 nM [^3H]GABA binding [6]: concentration-dependent stimulation
effect on 5 nM [^3H]GABA binding [7]: concentration-dependent stimulation
maximal increased specific [^3H]muscimol binding [8, 19]: 166 ± 5 % of control
maximal increased specific [^3H]muscimol binding [9, 19]: 240 ± 23 % of control binding
brain concentration [10]: 1000 nM
effect on 2 nM [^3H]muscimol binding [11]: no significant effect
effect on 2 nM [^3H]muscimol binding [12]: stimulated
effect on 2 nM [^3H]muscimol binding [13]: stimulated

O=C(Nc1c(-c2cccs2)nc2ccccn12)c1ccc(Cl)cc1 [DS2, 4-chloro-N-[2-(2-thienyl)imidazo[1,2-a]pyridin-3-yl]benzamide]
brain bioavailability [14]: limited brain bioavailability

Oc1noc2c1CCNC2 [THIP, 4,5,6,7-tetrahydroisoxazolo[5,4-c]pyridin-3-ol]
IC50 [15]: 200000 ± 110000 nM
IC50 [16]: 220000 ± 50000 nM

[3H]C([3H])(N)c1cc(=O)[nH]o1 [[^3H]muscimol]
association rate constant Kon [8, 20]: 2.2 ± 0.3 × 10^8 M^−1 × min^−1
dissociation rate constant Koff [8, 20]: 0.00633 ± 0.00033 s⁻¹
association rate constant Kon [9, 20]: 5.9 ± 0.6 × 10^8 M^−1 × min^−1
dissociation rate constant Koff [9, 20]: 0.011 ± 0.0005 s⁻¹
Kd ([17]; with AA29504 (10 µM), 22 °C, one-site model, read-out: KD): 23 ± 4 nM
Kd ([17]; without AA29504, 22 °C, read-out: KD, site (1) of two-site model): 4.1 ± 3.6 nM
Kd ([17]; without AA29504, 22 °C, read-out: KD, site (2) of two-site model (converted)): 40 nM
Kd ([18]; with AA29504 (10 µM), 22 °C): 30 ± 3 nM
Kd ([18]; without AA29504, 22 °C): 53 ± 6 nM
